From patent US8097733B2, “Pyrazole derivatives as 5-LO-inhibitors” (Pfizer Inc., priority 2007, dated 2012) come the findings set out here.

pIC50: −log10 of the molar value.

The target in test [1] is T1, recombinant human 5-LOX (Homo sapiens, UniProt P09917).
T1 sequence (P09917 1-674): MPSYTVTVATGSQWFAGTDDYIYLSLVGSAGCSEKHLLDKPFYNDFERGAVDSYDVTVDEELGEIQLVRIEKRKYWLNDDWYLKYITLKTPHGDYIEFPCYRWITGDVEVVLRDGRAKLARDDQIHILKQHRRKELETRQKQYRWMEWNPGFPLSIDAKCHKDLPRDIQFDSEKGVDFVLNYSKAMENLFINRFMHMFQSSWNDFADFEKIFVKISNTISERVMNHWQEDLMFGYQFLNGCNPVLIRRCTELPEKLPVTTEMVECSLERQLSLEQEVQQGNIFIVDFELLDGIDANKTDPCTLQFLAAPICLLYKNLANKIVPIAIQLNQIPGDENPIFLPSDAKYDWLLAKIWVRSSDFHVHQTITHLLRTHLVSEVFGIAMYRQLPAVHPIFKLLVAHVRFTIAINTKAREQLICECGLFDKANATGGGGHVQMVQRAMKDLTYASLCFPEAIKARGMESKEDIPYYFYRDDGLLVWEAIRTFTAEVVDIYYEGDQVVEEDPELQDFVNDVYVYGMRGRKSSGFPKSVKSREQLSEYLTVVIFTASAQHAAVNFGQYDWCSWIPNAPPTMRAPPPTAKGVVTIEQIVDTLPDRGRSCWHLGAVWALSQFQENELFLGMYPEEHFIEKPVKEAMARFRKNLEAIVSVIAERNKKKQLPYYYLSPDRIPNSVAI
Nature of the test: Fluorescence Intensity 5-LOX Enzyme Assay. The test is classed as biochemical. As to conditions: crude lysate of recombinant human 5-LOX; highest inhibitor concentration tested typically 25 μM. An excerpt:
Bio Data Assays for Allergic and Non Allergic Airways Diseases Fluorescence Intensity 5-LOX Enzyme Assay
The enzyme assay is based on the oxidation of the non-fluorescent compound 2′7′-dichlorodihydrofluorescein diacetate (H2DCFDA) to the fluorescent 2′,7′-dichlorofluorescein by 5-LOX in an arachidonic acid-dependent reaction. Ester cleavage of the acetate groups of the substrate H2DCFDA must occur prior to oxidation. This is achieved through use of a crude cell lysate preparation of recombinant human 5-LOX. The enzyme assay ([…]) contained 50 mM Tris (pH 7.5), 2 mM CaCl2, 2 mM EDTA, 3 μM arachidonic acid (Nu-Chek Prep; #S-1133), 10 μM ATP, 10 μM H2DCFDA (Invitrogen; #D399), inhibitor (varying concentration) and recombinant human 5-LOX enzyme (1.25 μL crude lysate per well).
Inhibitors (dissolved in DMSO) were plated into a 384-well assay plate (Corning #3654) at 1 μL followed by a 20 μL addition of a solution containing 5-LO enzyme and H2DCFDA. Enzyme and H2DCFDA were pre-incubated for 5 min to allow time for acetate group cleavage of the dye prior to addition to the assay plate. After a 10 min pre-incubation of inhibitor and enzyme/dye mix, the assay was initiated by the addition of a substrate solution containing arachidonic acid and ATP. The enzymatic reaction was run for 20 min at room temperature and terminated by the addition of 40 μL of acetonitrile. Assay plates were read in a plate reader using standard wavelengths for fluorescein. IC50s of inhibitors were calculated using a 4-parameter fit using 7 inhibitor concentrations in duplicate with 3-fold serial dilutions. Controls on each plate included no inhibitor (zero percent effect) and 25 μM C J-13610 (one hundred percent effect). The highest inhibitor concentration tested was typically 25 μM. The final DMSO concentration in the assay was 2.5%.

Test [2] relates to human whole blood (leukotriene and prostaglandin levels). The test is described as follows: Eicosanoid production from human whole blood. The test is classed as cell-based. The note with it: human whole blood stimulated with calcium ionophore A23187 and arachidonic acid; ELISA. Here is the method: Human whole blood is collected in 10 ml heparin tubes (Vacutainer, Becton Dickenson). Collected blood is pooled and 80 μL is dispensed into each well of 384 well polypropylene plates. A PlateMate is used to add 2 μL of compound solution in DMSO to the 80 μL of blood in the polypropylene plates. The plate, with blood and compound added, is incubated at room temperature for 10 minutes. 2 μL of a calcimycin (800 ng/ml) (A23187 C-7522, Sigma) and arachidonic acid (30 μM) (NU-Chek PREP, INC. S-1133) solution in 60% ethanol is then added to the blood using a Micromultidrop. The plates are then incubated at 37° C. in a shallow water bath for 15 minutes. Plates are then spun at 800 g for 10 minutes at 4° C. Supernatant is removed and assayed by Elisa (Caymen Chemical).
Eicosanoid Production from Human Whole Blood:
Human whole blood was collected from healthy or asthmatic human donors in 10 ml heparinized tubes (Vacutainer tubes; Becton Dickenson, Franklin Lakes, N.J.). Collected blood was pooled and 80 μL was dispensed into each well of 384 well polypropylene plates using a Multi-prop™ 384-well dispenser (Titertek, Huntsville, Ala.). Varying concentrations of compounds were dissolved in DMSO then 2 μL/well was added to the blood using a PlateMate Plus™ automated pipetting station (Matrix Technologies, Hudson, N.H.). The compounds were preincubated with the blood at room temperature for 10 minutes followed by stimulation with 40 μM calcium ionophore (A23187, Sigma Chemical Co, St. Louis, Mo., Cat. # C-7522) and 30 μM arachidonic acid (S-1133, NU-Chek PREP, Inc., Elysian, MN, Cat. # S-1133) dissolved in 60% ethanol. After 15 min incubation at 37° C. in a shallow water bath, the blood was centrifuged at 8009 for 10 minutes at 4° C., the supernatants collected, and leukotriene and prostaglandin levels measured by ELISA according to the manufacturer's directions (Cayman Chemical Company, Ann Arbor, Mich.). The assay was performed at a final concentration of 2.5% DMSO.

As a reminder, the pIC50 is the IC50 on a negative log10 scale, so that one unit is a factor of ten. Turning to `Cn1nccc1-c1ccc(Sc2cccc(C3(C(N)=O)CCOCC3)c2F)cc1` [17(7), 4-(2-fluoro-3-{[4-(1-methyl-1H-pyrazol-5-yl)phenyl]thio}-phenyl)tetrahydro-2H-pyran-4-carboxamide], the values for the pIC50 in test [1] and in test [2] were 6.90 and 6.59, respectively. As for `Cn1nccc1-c1ccc(Sc2cc(F)cc(C3(C(N)=O)CCOCC3)c2F)cc1` [19(10), 4-(2,5-difluoro-3-{[4-(1-methyl-1H-pyrazol-5-yl)phenyl]-thio}phenyl)tetrahydro-2H-pyran-4-carboxamide], the pIC50 in test [1] is 7.30; in test [2], 6.32. Consider `C[C@H]1C[C@@](C#N)(c2ccc(F)c(Sc3ccc(-c4ccnn4C)cc3)c2F)CCO1` [28(2), (2S,4R)-4-(2,4-difluoro-3-(4-(1-methyl-1H-pyrazol-5-yl)phenylthio)phenyl)-2-methyl-tetrahydro-2H-pyran-4-carbonitrile], for which the negative logarithm of the IC50 (pIC50) was 7.41 in test [1] and 7.37 in test [2]. On the same counts, the results for `NC(=O)C1(c2cccc(Sc3ccc(-c4ccnn4C4CCCC4)cc3)c2)CCOCC1` [Example 3, 4-(3-{[4-(1-cyclopentyl-1H-pyrazol-5-yl)phenyl]thio}phenyl)tetrahydro-2H-pyran-4-carboxamide] are 6.99 and 6.75. On to `NC(=O)C1(c2cccc(Sc3ccc(-c4ccnn4C4CCCCCC4)cc3)c2)CCOCC1` [Example 4, 4-(3-{[4-(1-cycloheptyl-1H-pyrazol-5-yl)phenyl]thio}phenyl)tetrahydro-2H-pyran-4-carboxamide], for which the results for the pIC50 in test [1] and in test [2] were 7.90 and 6.59, respectively. In the same order, the values of `NC(=O)C1(c2cccc(Sc3ccc(-c4ccnn4C4CCCCC4)cc3)c2)CCOCC1` [Example 5, 4-(3-{[4-(1-cyclohexyl-1H-pyrazol-5-yl)phenyl]thio}phenyl)tetrahydro-2H-pyran-4-carboxamide] are 7.80 and 6.39. With `NC(=O)C1(c2cccc(Sc3ccc(-c4ccnn4CC4CC4)cc3)c2)CCOCC1` [Example 6, 4-[3-({4-[1-(cyclopropylmethyl)-1H-pyrazol-5-yl]phenyl}thio)phenyl]tetrahydro-2H-pyran-4-carboxamide], the pIC50 in test [1] is 7.06; in test [2] it was 6.65.

As for `NC(=O)C1(c2cccc(Sc3ccc(-c4ccnn4CC4CCCC4)cc3)c2)CCOCC1` [Example 7, 4-[3-({4-[1-(cyclopentylmethyl)-1H-pyrazol-5-yl]phenyl}thio)phenyl]tetrahydro-2H-pyran-4-carboxamide], the pIC50 was 7.41 in test [1] and 7.11 in test [2]. Turning to `CCn1nccc1-c1ccc(Sc2cccc(C3(C(N)=O)CCOCC3)c2)cc1` [Example 8, 4-(3-{[4-(1-ethyl-1H-pyrazol-5-yl)phenyl]thio}phenyl)tetrahydro-2H-pyran-4-carboxamide], the pIC50 is 7.85 in test [1] and 6.60 in test [2]. In the same order, the values of `CC(C)n1nccc1-c1ccc(Sc2cccc(C3(C(N)=O)CCOCC3)c2)cc1` [Example 9] are 7.83 and 6.68.

Consider `Cn1nccc1C(=O)c1ccc([S+]([O-])c2cccc(C3(C(N)=O)CCOCC3)c2)cc1` (stereo not shown) [Example 66, 4-[3-({4-[(1-methyl-1H-pyrazol-5-yl)carbonyl]phenyl}sulfinyl)phenyl]tetrahydro-2H-pyran-4-carboxamide], for which the negative logarithm of the IC50 (pIC50) in test [1] is at most 4.60.

Regarding `C[C@H]1C[C@](C#N)(c2ccc(F)c(Sc3ccc(-c4ccnn4C)cc3)c2)CCO1` [Example 74, (2S,4S)-4-(4-fluoro-3-{[4-(1-methyl-1H-pyrazol-5-yl)phenyl]thio}phenyl)-2-methyltetrahydro-2H-pyran-4-carbonitrile], the pIC50 in test [1] is at most 4.60. Still for that read-out and setting: with `C[C@@H]1C[C@](C(N)=O)(c2ccc(F)c(Sc3ccc(-c4ccnn4C)cc3)c2)CCO1` [Example 75, (2R,4S)-4-(4-fluoro-3-{[4-(1-methyl-1H-pyrazol-5-yl)phenyl]thio}phenyl)-2-methyltetrahydro-2H-pyran-4-carboxamide] the figure was 4.91. The same measure, in the same setting: with `C[C@H]1C[C@](C(N)=O)(c2ccc(F)c(Sc3ccc(-c4ccnn4C)cc3)c2)CCO1` [Example 77, (2S,4S)-4-(4-fluoro-3-{[4-(1-methyl-1H-pyrazol-5-yl)phenyl]thio}phenyl)-2-methyltetrahydro-2H-pyran-4-carboxamide] the figure was 5.20; with `C[C@H]1C[C@](C(N)=O)(c2cccc(Sc3ccc(-c4ccnn4C)cc3)c2F)CCO1` [Example 79, (2S,4S)-4-(2-fluoro-3-{[4-(1-methyl-1H-pyrazol-5-yl)phenyl]thio}phenyl)-2-methyltetrahydro-2H-pyran-4-carboxamide], 5.48; with `Cn1nccc1-c1ccc(Sc2cccc(C3(C(N)=O)CCOC(C)(C)C3)c2)cc1` (stereo not shown) [Example 80, 2,2-dimethyl-4-(3-{[4-(1-methyl-1H-pyrazol-5-yl)phenyl]thio}phenyl)tetrahydro-2H-pyran-4-carboxamide], 5.45. Still for that read-out and setting: with `C[C@H]1C[C@](C(N)=O)(c2cccc(Sc3ccc(-c4ccnn4C)cc3)c2)CCO1` [Example 81, (2S,4S)-2-methyl-4-(3-{[4-(1-methyl-1H-pyrazol-5-yl)phenyl]thio}phenyl)tetrahydro-2H-pyran-4-carboxamide] the figure was 5.12. `C[C@@H]1C[C@@](C#N)(c2cccc(Sc3ccc(-c4ccnn4C)cc3)c2)CCO1` [Example 83, (2R,4R)-2-methyl-4-(3-{[4-(1-methyl-1H-pyrazol-5-yl)phenyl]thio}phenyl)tetrahydro-2H-pyran-4-carbonitrile]: in test [1], the pIC50 was 4.99. Same read-out and setting: to `C[C@H]1C[C@](C#N)(c2cccc(Sc3ccc(-c4ccnn4C)cc3)c2)CCO1` [Example 84, (2S,4S)-2-methyl-4-(3-{[4-(1-methyl-1H-pyrazol-5-yl)phenyl]thio}phenyl)tetrahydro-2H-pyran-4-carbonitrile] belongs 5.65.

As to `Cn1nccc1C(=O)c1ccc(Sc2cccc(C3(C(N)=O)CCOCC3)c2)c(C#N)c1` [Example 85, 4-[3-({2-cyano-4-[(1-methyl-1H-pyrazol-5-yl)carbonyl]phenyl}thio)phenyl]tetrahydro-2H-pyran-4-carboxamide], the pIC50 in test [1] was 5.56. On the same count and under the same terms, to `Cn1nccc1-c1ccc([S+]([O-])c2cccc(C3(C(N)=O)CCOCC3)c2)cc1Cl` (stereo not shown) [Example 89, 4-(3-{[3-chloro-4-(1-methyl-1H-pyrazol-5-yl)phenyl]sulfinyl}phenyl)tetrahydro-2H-pyran-4-carboxamide] belongs at most 4.60.
